Experimental data as given in patent US20260285850A1, “SUBSTITUTED OXAZOLIDINONES AND IMIDAZOLINONES AS HERBICIDES” (FMC CORPORATION, priority 2023, published 2026).

Legend:
Type in all cases: in vivo
rice (Oryza sativa) = assay: Test B flooded paddy test, visual plant response rating 0-100; details: 250 g ai/ha, Flood, applied to paddy water, evaluated after 13 days
Outline: (§1)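 In this flooded assay, 2-leaf seedlings received compound through the water layer, kept at 3 cm over the soil. Plants were held 13 days in a greenhouse and then visually compared with control pots.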

[1] = test system: sedge, umbrella (small-flower umbrella sedge, Cyperus difformis); assay: as above; details: 250 g ai/ha, Flood, applied to paddy water, evaluated after 13 days
Outline: as §1

[2] = test system: ducksalad (Heteranthera limosa); assay: as above; details: 250 g ai/ha, Flood, applied to paddy water, evaluated after 13 days
Outline: as §1

[3] = test system: barnyardgrass (Echinochloa crusgalli); assay: as above; details: 250 g ai/ha, Flood, applied to paddy water, evaluated after 13 days
Outline: as §1

[4] = test system: blackgrass (Alopecurus myosuroides); assay: Test A postemergence application, visual injury rating 0-100
Excerpt: (§2) Seeds of plant species selected from barnyardgrass (Echinochloa crus-galli), blackgrass (Alopecurus myosuroides), corn (Zea mays), foxtail, giant (giant foxtail, Setaria faberi), green foxtail (Setaria viridis), goosegrass (Eleusine indica), kochia (Bassia scoparia), oat, wild (wild oat, Avena fatua), palmer (palmer amaranth, palmer pigweed, Amaranthus palmeri), ragweed (common ragweed, Ambrosia artemisiifolia), ryegrass, Italian (italian ryegrass, Lolium multiflorum), soybean (Glycine max) and wheat (Triticum aestivum) were planted into a blend of loam soil and sand and treated preemergence with a directed soil spray using test chemicals formulated in a non-phytotoxic solvent mixture which included a surfactant.
(§3) At the same time, plants selected from these crops and weed species and also galium (catchweed bedstraw, Galium aparine) and horseweed (Erigeron canadensis) were planted in pots containing the same blend of loam soil and sand and treated with postemergence applications of test chemicals formulated in the same manner. Plants ranged in height from 2 to 10 cm and were in the one- to two-leaf stage for the postemergence treatment. Treated plants and untreated controls were maintained in a greenhouse for 10 days, after which time all treated plants were compared to untreated controls and visually evaluated for injury. Plant response ratings, summarized in Table A, are based on a 0 to 100 scale where 0 is no effect and 100 is complete control. A dash (-) response means no test result.

soybean (Glycine max) [5] = assay: as above
Excerpt: as §2, §3

[6] = test system: green foxtail (Setaria viridis); assay: as above
Excerpt: as §2, §3

[7] = test system: ryegrass, Italian (italian ryegrass, Lolium multiflorum); assay: as above
Excerpt: as §2, §3

[8] = test system: horseweed (Erigeron canadensis); assay: as above
Excerpt: as §2, §3

[9] = test system: oat, wild (wild oat, Avena fatua); assay: as above
Excerpt: as §2, §3

[10] = test system: barnyardgrass (Echinochloa crus-galli); assay: as above
Excerpt: as §2, §3

[11] = test system: palmer (palmer amaranth, palmer pigweed, Amaranthus palmeri); assay: as above
Excerpt: as §2, §3

corn (Zea mays) [12] = assay: as above
Excerpt: as §2, §3

[13] = test system: wheat (Triticum aestivum); assay: as above
Excerpt: as §2, §3

[14] = test system: ragweed (common ragweed, Ambrosia artemisiifolia); assay: as above
Excerpt: as §2, §3

kochia (Bassia scoparia) [15] = assay: as above
Excerpt: as §2, §3

[16] = test system: blackgrass (Alopecurus myosuroides); assay: Test A preemergence soil spray, visual injury rating 0-100; details: 10 days
Outline: (§4)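 Loam-sand pots got test material in surfactant-containing solvent, either as a directed soil spray before emergence or on plants at the one- to two-leaf stage. Visual injury (0-100) was read after ten greenhouse days.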

soybean (Glycine max) [17] = assay: as above; details: 10 days
Outline: as §4

[18] = test system: green foxtail (Setaria viridis); assay: as above; details: 10 days
Outline: as §4

[19] = test system: ryegrass, Italian (italian ryegrass, Lolium multiflorum); assay: as above; details: 10 days
Outline: as §4

[20] = test system: oat, wild (wild oat, Avena fatua); assay: as above; details: 10 days
Outline: as §4

[21] = test system: barnyardgrass (Echinochloa crus-galli); assay: as above; details: 10 days
Outline: as §4

[22] = test system: palmer (palmer amaranth, palmer pigweed, Amaranthus palmeri); assay: as above; details: 10 days
Outline: as §4

corn (Zea mays) [23] = assay: as above; details: 10 days
Outline: as §4

[24] = test system: wheat (Triticum aestivum); assay: as above; details: 10 days
Outline: as §4

[25] = test system: ragweed (common ragweed, Ambrosia artemisiifolia); assay: as above; details: 10 days
Outline: as §4

kochia (Bassia scoparia) [26] = assay: as above; details: 10 days
Outline: as §4

[27] = 62 g ai/ha, postemergence, 10 days, 0 = no effect, 100 = complete control
[28] = Postemergence, 16 g ai/ha, greenhouse 10 days, 0 no effect, 100 complete control
[29] = 62 g ai/ha, 0 = no effect, 100 = complete control

CCOC(=O)C1=CCC(NC(=O)C2(C)CN(c3cc(F)cc(F)c3)C(=O)O2)C1 (centres unmarked) [Compound 112]
Plant response rating, Rice (0 to 100 scale, 0 is no effect and 100 is complete control) (rice (Oryza sativa)): 85
Plant response rating, Sedge, Umbrella (0 to 100 scale, 0 is no effect and 100 is complete control) [1]: 95
Plant response rating, Ducksalad (0 to 100 scale, 0 is no effect and 100 is complete control) [2]: 95
Plant response rating, Barnyardgrass (0 to 100 scale, 0 is no effect and 100 is complete control) [3]: 80
Blackgrass plant response rating (0-100) [4, 27]: 80
Blackgrass plant response rating (0 to 100 scale) [4, 28]: 70
Soybean plant response rating (0-100) (soybean (Glycine max) [5]; [27]): 80
Soybean plant response rating (0 to 100 scale) (soybean (Glycine max) [5]; [28]): 60
Foxtail, Green plant response rating (0-100) [6, 27]: 90
Foxtail, Green plant response rating (0 to 100 scale) [6, 28]: 90
Ryegrass, Italian plant response rating (0-100) [7, 27]: 90
Ryegrass, Italian plant response rating (0 to 100 scale) [7, 28]: 60
Horseweed plant response rating (0-100) [8, 27]: 0
Horseweed plant response rating (0 to 100 scale) [8, 28]: 0
Oat, Wild plant response rating (0-100) [9, 27]: 90
Oat, Wild plant response rating (0 to 100 scale) [9, 28]: 50
Barnyardgrass plant response rating (0-100) [10, 27]: 100
Barnyardgrass plant response rating (0 to 100 scale) [10, 28]: 100
Pigweed, Palmer plant response rating (0-100) [11, 27]: 80
Pigweed, Palmer plant response rating (0 to 100 scale) [11, 28]: 30
Corn plant response rating (0-100) (corn (Zea mays) [12]; [27]): 100
Corn plant response rating (0 to 100 scale) (corn (Zea mays) [12]; [28]): 100
Wheat plant response rating (0-100) [13, 27]: 90
Wheat plant response rating (0 to 100 scale) [13, 28]: 90
Ragweed plant response rating (0-100) [14, 27]: 50
Ragweed plant response rating (0 to 100 scale) [14, 28]: 50
Kochia plant response rating (0-100) (kochia (Bassia scoparia) [15]; [27]): 90
Kochia plant response rating (0 to 100 scale) (kochia (Bassia scoparia) [15]; [28]): 60
Blackgrass plant response rating ([16]; 16 g ai/ha, 0 to 100 scale): 0
Blackgrass plant response rating (0-100) [16, 29]: 30
Soybean plant response rating (soybean (Glycine max) [17]; 16 g ai/ha, 0 to 100 scale): 10
Soybean plant response rating (0-100) (soybean (Glycine max) [17]; [29]): 0
Foxtail, Green plant response rating ([18]; 16 g ai/ha, 0 to 100 scale): 20
Foxtail, Green plant response rating (0-100) [18, 29]: 100
Ryegrass, Italian plant response rating ([19]; 16 g ai/ha, 0 to 100 scale): 60
Ryegrass, Italian plant response rating (0-100) [19, 29]: 80
Oat, Wild plant response rating ([20]; 16 g ai/ha, 0 to 100 scale): 0
Oat, Wild plant response rating (0-100) [20, 29]: 0
Barnyardgrass plant response rating ([21]; 16 g ai/ha, 0 to 100 scale): 20
Barnyardgrass plant response rating (0-100) [21, 29]: 100
Pigweed, Palmer plant response rating ([22]; 16 g ai/ha, 0 to 100 scale): 0
Pigweed, Palmer plant response rating (0-100) [22, 29]: 100
Corn plant response rating (corn (Zea mays) [23]; 16 g ai/ha, 0 to 100 scale): 20
Corn plant response rating (0-100) (corn (Zea mays) [23]; [29]): 60
Wheat plant response rating ([24]; 16 g ai/ha, 0 to 100 scale): 40
Wheat plant response rating (0-100) [24, 29]: 70
Ragweed plant response rating ([25]; 16 g ai/ha, 0 to 100 scale): 0
Ragweed plant response rating (0-100) [25, 29]: 0
Kochia plant response rating (kochia (Bassia scoparia) [26]; 16 g ai/ha, 0 to 100 scale): 0
Kochia plant response rating (0-100) (kochia (Bassia scoparia) [26]; [29]): 70
